Test results taken from PubChem BioAssay AID248 (DTP/NCI, 2004).
Where “and” joins values, the source holds several entries; their conditions need not be identical. Equal entries are not always repeated. Inconclusive results and toxic doses are left out. No stated cut-off is given here; in the data, active means T/C of 150% or more; inactive means T/C below 125%.

Tested on: L1210 leukemia ip in BDF1 mice, survival T/C
Experiment: NCI In Vivo Anticancer Drug Screen. Data for tumor model L1210 Leukemia (intraperitoneal) in B6D2F1 (BDF1) mice
Conditions: endpoint: mean survival time, higher = longer survival
In short: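 Ratio derived from survival: compound-dosed mice over vehicle-dosed mice, all bearing a transplantable tumor.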

[1] = dose: 100.0 mg/kg/injection, schedule: Q04DX003 (ip), vehicle: Klucel (hydroxypropylcellulose) (HPC)
[2] = dose: 200.0 mg/kg/injection, schedule: Q04DX003 (ip), vehicle: Klucel (hydroxypropylcellulose) (HPC)
[3] = dose: 400.0 mg/kg/injection, schedule: Q04DX003 (ip), vehicle: Klucel (hydroxypropylcellulose) (HPC)
[4] = dose: 100.0 mg/kg/injection, schedule: Q01DX001 (ip), vehicle: saline
[5] = dose: 200.0 mg/kg/injection, schedule: Q01DX001 (ip), vehicle: saline
[6] = dose: 400.0 mg/kg/injection, schedule: Q01DX001 (ip), vehicle: saline
[7] = dose: 100.0 mg/kg/injection, schedule: Q04DX003 (ip), vehicle: saline with Tween-80
[8] = dose: 100.0 mg/kg/injection, schedule: Q01DX001 (ip), vehicle: carboxymethylcellulose (CMC)
[9] = dose: 100.0 mg/kg/injection, schedule: Q04DX003 (ip), vehicle: saline
[10] = dose: 200.0 mg/kg/injection, schedule: Q04DX003 (ip), vehicle: saline
[11] = dose: 400.0 mg/kg/injection, schedule: Q04DX003 (ip), vehicle: saline
[12] = dose: 50.0 mg/kg/injection, schedule: Q04DX003 (ip), vehicle: saline

Measured: T/C

O=C(c1ccccc1)c1nc2ccccc2s1
inactive: dose: 12.5 mg/kg/injection, schedule: Q01DX005 (ip), vehicle: other 94 % of control | dose: 25.0 mg/kg/injection, schedule: Q01DX005 (ip), vehicle: other 90 % of control | dose: 50.0 mg/kg/injection, schedule: Q01DX005 (ip), vehicle: other 89 % of control | dose: 100.0 mg/kg/injection, schedule: Q01DX005 (ip), vehicle: other 89 % of control | dose: 200.0 mg/kg/injection, schedule: Q01DX005 (ip), vehicle: other 89 % of control

NC(=O)Nc1ccc(/C=C2\C=Cc3ccccc32)cc1
inactive: dose: 75.0 mg/kg/injection, schedule: Q01DX001 (ip), vehicle: saline 96 % of control | dose: 150.0 mg/kg/injection, schedule: Q01DX001 (ip), vehicle: saline 93 % of control | dose: 300.0 mg/kg/injection, schedule: Q01DX001 (ip), vehicle: saline 94 % of control

CN=C(N)c1cccc(NC(=O)c2ccc(C(=O)Nc3cccc(C(N)=NC)c3)cc2)c1
inactive: dose: 15.0 mg/kg/injection, schedule: Q01DX Z (ip), vehicle: saline 109 % of control | dose: 30.0 mg/kg/injection, schedule: Q01DX Z (ip), vehicle: saline 93 % of control

CCCCCCCCNC(=O)CCCCC(=O)NCCCCCCCC
inactive: dose: 100.0 mg/kg/injection, schedule: Q01DX009 (ip), vehicle: Klucel (hydroxypropylcellulose) (HPC) 91 % of control | [1] 90 % of control | dose: 200.0 mg/kg/injection, schedule: Q01DX009 (ip), vehicle: Klucel (hydroxypropylcellulose) (HPC) 86 % of control | [2] 90 % of control | dose: 400.0 mg/kg/injection, schedule: Q01DX009 (ip), vehicle: Klucel (hydroxypropylcellulose) (HPC) 95 % of control | [3] 101 % of control

CC(=O)OCC1OC(N2C(=O)/C(=C(/C)c3ccncc3)SC2=S)C(OC(C)=O)C(OC(C)=O)C1OC(C)=O (stereo not drawn)
inactive: dose: 25.0 mg/kg/injection, schedule: Q01DX005 (ip), vehicle: water 94 % of control | dose: 50.0 mg/kg/injection, schedule: Q01DX005 (ip), vehicle: water 97 % of control | dose: 100.0 mg/kg/injection, schedule: Q01DX005 (ip), vehicle: water 97 % of control | dose: 200.0 mg/kg/injection, schedule: Q01DX005 (ip), vehicle: water 97 % of control | dose: 400.0 mg/kg/injection, schedule: Q01DX005 (ip), vehicle: water 89 % of control

O=C(CN1C(=O)c2ccccc2C1=O)c1cccc(Br)c1
inactive: [4] 95 % of control | [5] 104 % of control | [6] 103 % of control

N#Cc1cc(C#N)c(NN)nc1N
inactive: [7] 86 % of control | dose: 200.0 mg/kg/injection, schedule: Q04DX003 (ip), vehicle: saline with Tween-80 94 % of control | dose: 400.0 mg/kg/injection, schedule: Q04DX003 (ip), vehicle: saline with Tween-80 92 % of control

COc1cc(C2C(C(=O)OC/C=C/c3ccc4c(c3)OCO4)C(c3cc(OC)c(OC)c(OC)c3)C2C(=O)OC/C=C/c2ccc3c(c2)OCO3)cc(OC)c1OC (stereo not drawn)
inactive: [8] 90 % of control | dose: 200.0 mg/kg/injection, schedule: Q01DX001 (ip), vehicle: carboxymethylcellulose (CMC) 95 % of control | dose: 400.0 mg/kg/injection, schedule: Q01DX001 (ip), vehicle: carboxymethylcellulose (CMC) 88 % of control

CC12CCCCC1C(C(=O)O)CC2 (stereo not drawn)
inactive: dose: 100.0 mg/kg/injection, schedule: Q04DX002 (ip), vehicle: saline with Tween-80 105 % of control | dose: 200.0 mg/kg/injection, schedule: Q04DX002 (ip), vehicle: saline with Tween-80 105 % of control | dose: 400.0 mg/kg/injection, schedule: Q04DX002 (ip), vehicle: saline with Tween-80 92 % of control

CC(=O)NS(=O)(=O)c1cc(N)ccc1S(=O)(=O)c1ccc(N)cc1
inactive: [4] 94 % of control | [5] 92 % of control | [6] 92 % of control

O=C(CCN1CC1)N1CCOCC1
inactive: [9] 108 % of control | [10] 100 % of control | [11] 113 % of control

O=c1[nH]c(=O)c2nccnc2[nH]1
inactive: dose: 25.0 mg/kg/injection, schedule: Q01DX009 (ip), vehicle: water 109 % of control | dose: 50.0 mg/kg/injection, schedule: Q01DX009 (ip), vehicle: water 111 % of control | dose: 100.0 mg/kg/injection, schedule: Q01DX009 (ip), vehicle: water 104 % of control | dose: 200.0 mg/kg/injection, schedule: Q01DX009 (ip), vehicle: water 101 % of control

C=C(Cl)CNCC
inactive: dose: 12.5 mg/kg/injection, schedule: Q01DX009 (ip), vehicle: saline with Tween-80 91 % of control | dose: 25.0 mg/kg/injection, schedule: Q01DX009 (ip), vehicle: saline with Tween-80 97 % of control | dose: 50.0 mg/kg/injection, schedule: Q01DX009 (ip), vehicle: saline with Tween-80 119 % of control

CC(C)(CO)C(=O)O
inactive: [4] 101 % of control | [5] 98 % of control | [6] 106 % of control

CCCCOc1ccccc1NC(=O)CCl
inactive: [9] 100 % of control | [10] 100 % of control | [11] 93 % of control

CC1=C(C)CC(C(=O)c2ccccc2)=C(C(=O)c2ccccc2)C1
inactive: dose: 100.0 mg/kg/injection, schedule: Q01DX001 (ip), vehicle: Klucel (hydroxypropylcellulose) (HPC) 95 % of control | dose: 200.0 mg/kg/injection, schedule: Q01DX001 (ip), vehicle: Klucel (hydroxypropylcellulose) (HPC) 90 % of control | dose: 400.0 mg/kg/injection, schedule: Q01DX001 (ip), vehicle: Klucel (hydroxypropylcellulose) (HPC) 90 % of control

CN(NCc1ccccc1)C(=N)N
inactive: dose: 25.0 mg/kg/injection, schedule: Q04DX003 (ip), vehicle: saline 106 % of control | [12] 109 % of control | [4] 107 % of control | [9] 109 % of control

NC(=S)N/N=C1/CCc2ccccc21
inactive: [8] 113 % of control

CCS(=O)(=O)C1C2C=CC(O2)C1S(=O)(=O)CC (stereo not drawn)
inactive: [1] 102 % of control | [2] 101 % of control | [3] 96 % of control

O=C1CCc2cc([N+](=O)[O-])ccc2O1
inactive: dose: 50.0 mg/kg/injection, schedule: Q01DX001 (ip), vehicle: saline 103 % of control | [4] 92 % of control | [5] 94 % of control | [6] 103 % of control

CCCCCCNC(=O)Nc1ccc(Cl)c(Cl)c1
inactive: [4] 98 % of control | [5] 101 % of control | [6] 95 % of control

NNP(=O)(c1ccccc1)c1ccccc1
inactive: [4] 108 % of control | [5] 102 % of control | [6] 102 % of control

CC(=O)OCN1C(=O)C2C3CCC(O3)C2C1=O (stereo not drawn)
inactive: dose: 25.0 mg/kg/injection, schedule: Q04DX003 (ip), vehicle: saline with Tween-80 104 % of control | dose: 50.0 mg/kg/injection, schedule: Q04DX003 (ip), vehicle: saline with Tween-80 98 % of control | dose: 100.0 mg/kg/injection, schedule: Q01DX001 (ip), vehicle: saline with Tween-80 106 % of control | [7] 95 % of control and 104 % of control | dose: 200.0 mg/kg/injection, schedule: Q01DX001 (ip), vehicle: saline with Tween-80 98 % of control

CC(C)NCCNc1ccnc2cc(Cl)ccc12
inactive: dose: 10.0 mg/kg/injection, schedule: Q01DX001 (ip), vehicle: saline 94 % of control | dose: 20.0 mg/kg/injection, schedule: Q01DX001 (ip), vehicle: saline 98 % of control | dose: 40.0 mg/kg/injection, schedule: Q01DX001 (ip), vehicle: saline 96 % of control

CSc1nc2ncnn2c(=O)[nH]1
inactive: [12] 96 % of control | [9] 94 % of control | [10] 100 % of control | [11] 92 % of control

O=C(Nc1ccc2c(c1)OCO2)N1CC1
inactive: dose: 10.0 mg/kg/injection, schedule: Q01DX009 (ip), vehicle: Klucel (hydroxypropylcellulose) (HPC) 102 % of control | dose: 20.0 mg/kg/injection, schedule: Q01DX009 (ip), vehicle: Klucel (hydroxypropylcellulose) (HPC) 92 % of control | dose: 20.0 mg/kg/injection, schedule: Q04DX003 (ip), vehicle: Klucel (hydroxypropylcellulose) (HPC) 103 % of control | dose: 40.0 mg/kg/injection, schedule: Q04DX003 (ip), vehicle: Klucel (hydroxypropylcellulose) (HPC) 113 % of control

c1ccc(-c2nn(-c3ccccc3)[n+](-c3ccccc3-c3ccccc3)n2)cc1
inactive: dose: 4.0 mg/kg/injection, schedule: Q01DX015 (ip), vehicle: carboxymethylcellulose (CMC) 98 % of control | dose: 8.0 mg/kg/injection, schedule: Q01DX015 (ip), vehicle: carboxymethylcellulose (CMC) 93 % of control | dose: 16.0 mg/kg/injection, schedule: Q01DX015 (ip), vehicle: carboxymethylcellulose (CMC) 94 % of control

NNc1ccc2c(O)cc(S(=O)(=O)O)cc2c1
inactive: [4] 98 % of control | [9] 103 % of control | [5] 104 % of control | [10] 95 % of control | [6] 107 % of control | [11] 101 % of control
